Read-outs that look alike come from different tables or passages of the source.
Legend:
[1] = target: T1, KDR (Homo sapiens, UniProt P35968); experiment: (125I)-VEGF binding inhibition on NIH3T3 cells in which KDR was forced to be expressed; settings: KDR-expressing NIH3T3 cells, (125I)-VEGF 25 pM, 90 minutes, read-out: IC50 (concentration of 50% binding inhibition)
T1 construct: expressed in transfected cells; host or cells: NIH3T3
Method: (§1) According to the method described in a document (Cell Growth & Differentiation, vol. 7, pp. 213-221, 1996), the following tests were carried out.
(§2) NIH3T3 cells in which Flt-1 was forced to be expressed were seeded on a 24-well collagen-coated plate (7×10^4/well), and were cultured in Dulbecco's modified Eagle's medium (DMEM) including 10% bovine serum and 200 μg/ml of Geneticin G418, for 24 hours at 37° C. under an atmosphere of 5% carbon dioxide gas. The cells were preincubated in Buffer A (including 10 mM HEPES (N-2-hydroxyethylpiperazine-N′-2-ethanesulfonic acid) and 0.1% BSA (bovine serum albumin) in DMEM), for 30 minutes at 4° C. Subsequently, the medium was replaced with Buffer B (including 10 mM HEPES and 0.5% BSA in DMEM). A test solution prepared by dissolving each of the test compounds shown in Table 19 in dimethylsulfoxide and subsequently diluting the solution into a prescribed concentration with Buffer B, and (^125I)-VEGF (the final concentration was set to 25 pM) were added thereto. Binding reaction was carried out for 90 minutes at […]. After completion of the reaction, the cells were washed three times with ice-cooled Buffer A. Subsequently, 0.5 ml of 0.5M NaOH were added to each well, and the cells were lysed in 30 minutes at room temperature. The radioactivity of the lysed cells in each well was measured by means of a gamma counter, and a total binding quantity of (^125I)-VEGF was calculated. Nonspecific binding quantity of (^125I)-VEGF was measured by competition assay in the presence of 10 nM non-labeled VEGF. The specific binding quantity of (^125I)-VEGF was calculated from the difference between the total binding quantity of (^125I)-VEGF and nonspecific binding quantity of (^125I)-VEGF.
(§3) The binding inhibition index of the test compounds was calculated by the following equation. [formula]
(§4) From this value, a concentration of 50% binding inhibition (IC50) of the test compound was calculated.
Test on each of the test compounds shown in Table 20 and Table 21 was carried out employing NIH3T3 cells in which KDR was forced to be expressed, in the same manner as described in Experimental Example 1 described above.

[2] = target: T2, Flt-1 (Homo sapiens, UniProt P17948); experiment: (125I)-VEGF binding inhibition on NIH3T3 cells in which Flt-1 was forced to be expressed; settings: Flt-1-expressing NIH3T3 cells, (125I)-VEGF 25 pM, 90 minutes; read-out: IC50 (concentration of 50% binding inhibition)
T2 construct: expressed in transfected cells; host or cells: NIH3T3
T2 sequence (P17948 27-1338): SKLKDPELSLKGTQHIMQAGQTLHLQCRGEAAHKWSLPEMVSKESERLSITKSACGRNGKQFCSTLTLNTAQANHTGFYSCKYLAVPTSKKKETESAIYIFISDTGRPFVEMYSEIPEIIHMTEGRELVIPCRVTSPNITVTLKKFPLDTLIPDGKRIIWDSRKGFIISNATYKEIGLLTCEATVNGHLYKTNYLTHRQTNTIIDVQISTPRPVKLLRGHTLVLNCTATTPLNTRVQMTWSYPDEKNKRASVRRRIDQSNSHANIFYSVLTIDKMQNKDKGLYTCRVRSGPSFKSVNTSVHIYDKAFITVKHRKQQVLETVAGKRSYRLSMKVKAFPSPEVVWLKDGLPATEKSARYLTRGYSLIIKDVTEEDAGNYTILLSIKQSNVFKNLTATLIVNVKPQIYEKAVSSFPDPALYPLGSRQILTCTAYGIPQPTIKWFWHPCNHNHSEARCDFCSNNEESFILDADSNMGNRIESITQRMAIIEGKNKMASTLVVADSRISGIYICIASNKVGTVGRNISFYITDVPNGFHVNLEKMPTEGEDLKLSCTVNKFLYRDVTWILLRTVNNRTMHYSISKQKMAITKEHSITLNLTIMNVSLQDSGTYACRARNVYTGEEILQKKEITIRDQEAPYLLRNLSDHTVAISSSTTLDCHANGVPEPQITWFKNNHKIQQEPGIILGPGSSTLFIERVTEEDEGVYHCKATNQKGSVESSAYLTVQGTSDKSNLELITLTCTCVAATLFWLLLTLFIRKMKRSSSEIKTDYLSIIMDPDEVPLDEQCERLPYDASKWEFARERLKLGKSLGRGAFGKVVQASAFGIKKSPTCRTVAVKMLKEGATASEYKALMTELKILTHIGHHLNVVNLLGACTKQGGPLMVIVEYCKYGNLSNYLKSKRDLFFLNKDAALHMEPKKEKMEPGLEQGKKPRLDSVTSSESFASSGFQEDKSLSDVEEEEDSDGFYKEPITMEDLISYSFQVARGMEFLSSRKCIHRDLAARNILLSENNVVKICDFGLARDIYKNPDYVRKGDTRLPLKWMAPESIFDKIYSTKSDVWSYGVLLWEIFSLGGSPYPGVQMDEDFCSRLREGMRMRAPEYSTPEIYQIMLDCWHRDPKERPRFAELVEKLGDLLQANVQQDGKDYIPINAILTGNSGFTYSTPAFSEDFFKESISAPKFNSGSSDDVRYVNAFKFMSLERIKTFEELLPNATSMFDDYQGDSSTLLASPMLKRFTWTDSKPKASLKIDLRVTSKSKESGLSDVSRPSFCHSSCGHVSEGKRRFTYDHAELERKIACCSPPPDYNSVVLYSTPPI
Method: as §1, §2, §3, §4

T1 sequence (P35968 20-1356): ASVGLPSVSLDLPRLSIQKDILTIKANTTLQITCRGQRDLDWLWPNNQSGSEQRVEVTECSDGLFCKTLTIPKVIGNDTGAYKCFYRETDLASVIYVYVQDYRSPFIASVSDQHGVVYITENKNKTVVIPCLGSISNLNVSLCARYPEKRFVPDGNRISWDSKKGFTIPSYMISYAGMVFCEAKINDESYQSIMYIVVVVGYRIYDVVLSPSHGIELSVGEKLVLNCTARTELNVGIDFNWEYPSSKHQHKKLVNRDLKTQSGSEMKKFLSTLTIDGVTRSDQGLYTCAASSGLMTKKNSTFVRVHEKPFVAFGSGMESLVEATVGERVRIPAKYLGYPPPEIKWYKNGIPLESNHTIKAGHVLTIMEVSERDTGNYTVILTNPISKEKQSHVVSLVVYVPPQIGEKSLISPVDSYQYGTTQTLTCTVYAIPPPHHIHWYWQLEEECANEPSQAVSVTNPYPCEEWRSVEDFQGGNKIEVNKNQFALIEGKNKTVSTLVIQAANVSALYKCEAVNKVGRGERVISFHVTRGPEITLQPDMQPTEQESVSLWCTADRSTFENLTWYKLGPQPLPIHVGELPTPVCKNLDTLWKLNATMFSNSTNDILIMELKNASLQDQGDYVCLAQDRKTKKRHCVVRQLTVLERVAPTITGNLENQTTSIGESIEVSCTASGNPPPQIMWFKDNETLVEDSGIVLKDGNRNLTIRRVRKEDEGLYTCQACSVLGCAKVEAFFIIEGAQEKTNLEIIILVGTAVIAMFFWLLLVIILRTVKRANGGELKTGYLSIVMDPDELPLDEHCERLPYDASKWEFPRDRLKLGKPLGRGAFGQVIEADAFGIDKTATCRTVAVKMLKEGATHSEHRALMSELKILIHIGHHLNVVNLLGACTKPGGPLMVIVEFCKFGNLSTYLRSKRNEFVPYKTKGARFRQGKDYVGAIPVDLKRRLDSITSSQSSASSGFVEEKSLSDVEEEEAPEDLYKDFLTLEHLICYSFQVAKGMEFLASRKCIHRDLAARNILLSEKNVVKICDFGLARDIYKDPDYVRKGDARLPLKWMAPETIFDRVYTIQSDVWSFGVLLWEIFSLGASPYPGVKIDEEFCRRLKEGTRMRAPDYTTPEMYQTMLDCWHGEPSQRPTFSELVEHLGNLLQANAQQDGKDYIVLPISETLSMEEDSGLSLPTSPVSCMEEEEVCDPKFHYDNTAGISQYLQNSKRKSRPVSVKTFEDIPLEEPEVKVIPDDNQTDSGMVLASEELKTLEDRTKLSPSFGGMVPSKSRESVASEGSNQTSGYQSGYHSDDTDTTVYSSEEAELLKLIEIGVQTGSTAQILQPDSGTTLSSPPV

| IC50 ([1]; Table 20) [nM] | IC50 [2] [nM] | melting point [°C] | IC50 ([1]; Table 21) [nM] | SMILES |
| --- | --- | --- | --- | --- |
| – | 280 | 106 to 108 | 80 | CCCCCCCCCCCCCCCCCCOc1ccc(CCC(=O)N(C)c2ccc(SC)c(C(=O)O)c2)cc1 [Compound 113] |
| – | 420 | – | 340 | CCCCCCCCCCCCCCCCCCOc1ccc(CC(=O)N(C)c2ccc(SC)c(C(=O)O)c2)cc1 [Compound 114] |
| – | – | 87 to 88.5 | 500 | CCCCCCCCCCCCCCCCCCOc1ccc(CC(=O)N(C)c2ccc(SCC)c(C(=O)O)c2)cc1 [Compound 154] |
| – | – | 76 to 80 | 670 | CCCCCCCCCCCCCCCCCCOc1ccc(CC(=O)N(C)c2ccc(SCCC)c(C(=O)O)c2)cc1 [Compound 155] |
| – | – | 114 to 117.5 | 1300 | CCCCCCCCCCCCCCCCCCOc1ccc(CC(=O)N(C)c2ccc(SCCO)c(C(=O)O)c2)cc1 [Compound 161] |

The next lines start with the compound.

| SMILES | IC50 ([1]; Table 20) [nM] | IC50 [2] [nM] | melting point [°C] | IC50 ([1]; Table 21) [nM] |
| --- | --- | --- | --- | --- |
| CCCCCCCCCCCCCCCCCCOc1ccc(CCC(=O)Nc2ccc(Oc3ccc(C(=O)O)cc3)c(C(=O)O)c2)cc1 [Compound 27] | 510 | 680 | 213 to 215 | – |
| CCCCCCCCCCCCCCCCCCOc1ccc(CCC(=O)Nc2ccc(Oc3cccc(C(=O)O)c3)c(C(=O)O)c2)cc1 [Compound 28] | 420 | 710 | 201 to 205 | – |
| CCCCCCCCCCCCCCCCCCOc1ccc(CC(=O)N(C)c2ccc(SCCCO)c(C(=O)O)c2)cc1 [Compound 162] | – | – | 104.5 to 106.5 | 1160 |
| CCCCCCCCCCCCCCCCCCOc1ccc(NCC(=O)Nc2ccc(SC)c(C(=O)O)c2)cc1 [Compound 163] | – | – | 163.5 to 169.5 | 410 |
| CCCCCCCCCCCCCCCCCCNc1ccc(CCC(=O)Nc2ccc(SC)c(C(=O)O)c2)cc1 [Compound 164] | – | – | 151 to 158 | 570 |
